Tested on: CFLP female mice
Assay: Reversal of Adrenaline-Exacerbated Glucose Intolerance in Mice
Assay type: in vivo
Settings: oral gavage, glucose 1 g/kg and adrenaline 300 μg/kg s.c., 0-120 minutes, versus water control, 24 h fasted mice
Description: (A) Reversal of Adrenaline-Exacerbated Glucose Intolerance in Mice
CFLP female mice of about 25 g were fasted for 24 hours prior to receiving water (10 ml/kg) or compounds by oral gavage. Thirty minutes later, glucose (1 g/kg) and adrenaline (300 μg/kg) were injected subcutaneously. Blood samples for glucose analysis were taken serially from the tail of each mouse at 0, 30, 60, 90 and 120 minutes after dosing glucose and the results are expressed below as the percentage reduction in the area under the blood glucose curve; the compound treated groups being compared to the water dosed control group. Six mice were used in each treatment group.

Row | SMILES | % Reduction in area under Blood Glucose Curve (10 μmol/kg) [%] | % Reduction in area under Blood Glucose Curve (20 μmol/kg) [%]
1 | Clc1cccc2c1CN(CC1=NCCN1)C2 [Example 2, 2-[2H-(4-Chloro-1,3-dihydroisoindole)methyl]-4,5-dihydroimidazole] | 24 | 
2 | c1ccc2c(c1)CN(CC1=NCCN1)C2 [Example 1, 2-[2H-(1,3-Dihydroisoindole)methyl]-4,5-dihydroimidazole] | 40 | 
3 | Clc1ccc2c(c1)CN(CC1=NCCN1)C2 [Example 3, 2-[2H-(5-Chloro-1,3-dihydroisoindole)methyl]-4,5-dihydroimidazole] |  | 44
